The format of data set [1] is physicochemical. Here is the method: (§1) The antimicrobial activity of the IL-KTTKS conjugates was assessed in vitro against reference bacterial strains (American Type Culture Collection, ATCC). The minimal inhibitory concentration (MIC) was determined according to the Clinical and Laboratory Standards Institute (CLSI) guidelines ([28]) against Gram-positive (S. aureus, Enterococcus faecalis) and Gram-negative (Escherichia coli, Pseudomonas aeruginosa) bacteria.
(vi) Quantitation of final peptides and their IL conjugates. Peptide stock solutions were prepared at approximately 10 mg/mL in distilled water except for C16-KTTKS-OH that was solubilized in DMSO. Accurate quantitation of the peptide solutions were quantitated by microvolume spectrophotometry at 205 nm, using a Thermo Scientific NanoDrop One system and quantitation method 31 that assumes an extinction coefficient ε205 of 31 mL·mg^−1·cm^−1 ([50]). […] To this end, the peptide was hydrolyzed using 6 M aqueous hydrochloric acid containing phenol (10% vol/vol), for 24 h at 110°C. The hydrolysate was next evaporated to dryness and the residue dissolved in HPLC-grade water (500 μL) containing α-aminobutyric acid as internal standard. The mixture thus obtained was then derivatized by the AccQ-Tag protocol from Waters using 6-aminoquinoyl-N-hydroxysuccinimidyl carbamate ([51]), and the resulting solution analyzed by HPLC (WATERS 600) with the UV-detector (WATERS 2487) set at 254 nm.

Data set [2] deals with K. pneumonia ATCC 138830. As to the kind of experiment: microbe, parasite or virus in culture. The following applies: Klebsiella pneumoniae, ATCC138830. As to the method: as §1
(§2) (i) Antibacterial activity in standard conditions. The test conjugates and reference compounds were evaluated for their activity against three reference strains of Gram-negative bacteria, namely, E. coli (ATCC 25922), Pseudomonas aeruginosa (ATCC 27853), and Klebsiella pneumoniae (ATCC 13883), and the four following reference strains of Gram-positive bacteria, Staphylococcus aureus (ATCC 29213), S. Epidermidis (ATCC 14990), E. faecalis (ATCC 29212), and Streptococcus pyogenes (ATCC 19615). […] MBC values were also determined as previously reported ([52]).

For data set [3], the system named is P. aeruginosa ATCC 27853. As to the kind of experiment: microbe, parasite or virus in culture. Here is the method:
as §1, §2

Data set [4] has as its system E. faecalis ATCC 29212. Briefly: microbe, parasite or virus in culture. As to the method:
as §1, §2

For data set [5], the system named is S. aureus ATCC 29213. Briefly: microbe, parasite or virus in culture. Here is the method: as §1, §2
The test system of data set [6] is E. coli ATCC 25922. As to the kind of experiment: microbe, parasite or virus in culture. Here is the method:
as §1, §2

The subject of data set [7] is C. glabrata ATCC 90030. As to the kind of experiment: microbe, parasite or virus in culture. The following applies: Nakaseomyces glabratus, ATCC90030. As to the method:
(§3) The MIC values were determined according to the European Committee on Antimicrobial Susceptibility Testing (EUCAST) protocol ([36]) and are shown on Table 4.
(§4) (iii) Antifungal activity.

Data set [8] deals with C. parapsilosis ATCC 22019. As to the kind of experiment: microbe, parasite or virus in culture. The following applies: Lodderomyces parapsilosis, ATCC22019. As to the method:
as §3, §4

The test system of data set [9] is C. albicans ATCC 90028. Briefly: microbe, parasite or virus in culture. As to conditions: Candida albicans, ATCC90028. As to the method:
as §3, §4

In data set [10] the test system is HaCaT cells (human immortalized keratinocytes). Briefly: cells. Format: cell-based. As to the method: (§5) The cytotoxicity of KTTK(C16Im)S and C16Im-KTTKS conjugates was assessed on human foreskin fibroblasts (HFF-1) and human immortalized keratinocytes (HaCaT). […] In turn, the parent IL [C16 M1Im][Br] and its […] equimolar mixture with PP4, KTTKS:[C16 M1Im][Br]
(§6) (iv) Toxicity to human cells. HaCat and HFF-1 were seeded at 4 × 10^4cell/mL in 96-well plate using in Dulbecco’s Modified Eagle Medium (DMEM; CLS) supplemented with 2% FBS (Biowest) and 1% of antibiotic/antimycotic solution (100 units/mL of penicillin, 10 mg/mL of streptomycin, and 0.25 mg/mL of amphotericin B, Sigma-Aldrich). The plate was incubated at 37°C in a 5% CO2 atmosphere, and the cells allowed to grow until confluence was reached. Then, solutions of the test compounds in DMEM supplemented with 2% FBS, in a concentration range between 6.3 and 100 μM, were added to the wells. After 24 h of incubation at 37°C in a 5% CO2 atmosphere, the cell viability was assessed through the resazurin reduction assay. Briefly, the medium was removed and then 20 μL of the alamarBlue Cell Viability Reagent (Resazurin sodium salt, Sigma-Aldrich) at 0.15 mg/mL in 100 μL of Hank’s Balanced Salt Solution (HBSS; Sigma-Aldrich) were added to each well; the plate was next incubated for 2 h at 37°C in a 5% CO2 atmosphere, after which fluorescence was read at 560/590 nm on a Flex Station 3 multi-mode microplate reader (Molecular Devices) ([53]). The IC50 values were thus determined using the GraphPad Prism 9.0 software, by applying the equation log(inhibitor) versus response with variable slope (four parameters).

Data set [11] deals with HFF-1 cells (human foreskin fibroblasts). In kind it is cell-based. As to conditions: 24 h. As to the method:
as §5, §6

The mark [12] stands for this setting: Enterococcus faecalis, ATCC29212.
Where [13] appears, read: Staphylococcus aureus, ATCC29213.
Where [14] appears, read: P. aeruginosa ATCC 27853, broth microdilution in cation-adjusted MHB2, CLSI, n = 3.
Setting [15] is: E. faecalis ATCC 29212, broth microdilution in cation-adjusted MHB2, CLSI, n = 3.
Setting [16] is: S. aureus ATCC 29213, broth microdilution in cation-adjusted MHB2, CLSI, n = 3.
Where [17] appears, read: E. coli ATCC 25922, broth microdilution in cation-adjusted MHB2, CLSI, n = 3.

Broadly, the IC50 is the concentration needed to halve the response being measured.

In brackets after ≈: the same amount, converted by molar mass. Several values for one entry are separate records, joined by “and”; a condition that tells them apart may be missing. Equal entries are not always repeated. Where two headings read alike, the source gives them in different places. Peptide text beside a SMILES is read from it. * marks the point of attachment. X2 = Cn1cc[n+](Cc2cn(CC(=O)*)nn2)c1; Palmitoyl = CCCCCCCCCCCCCCCC(=O)*

Regarding “C16-KTTKS-NH2 [C-terminal carboxamide analogue of Matrixyl]”, in data set [1], the “Behaviour when diluted in cation-adjusted Mueller-Hinton broth (MHB2)” value is reported as “precipitated” and the “Solvent in which the peptide was soluble” value is on record as “water”.

In the case of `CCCCCCCCCCCCCCCCn1cc[n+](C)c1` [[C16 M1Im][Br], 1-hexadecyl-3-methylimidazolium bromide, reference compound], the MIC is 60 µM in [2]; greater than 240 µM in [3] (Pseudomonas aeruginosa, ATCC27853); 0.94 µM in [4] (setting [12]); 0.94 µM in data set [5] (setting [13]); 60 µM in data set [6] (Escherichia coli, ATCC25922); 0.93 µM in data set [7]. The MIC in data set [8] and in data set [9] was 0.93 µM throughout. Further, the MBC in data set [4] (setting [12]) turned out to be 15 µM; in [5] (setting [13]), 30 µM. In addition, the half-maximal inhibitory concentration (IC50) in data set [10] (Homo sapiens, HaCaT, 24 h incubation, 6.3-100 μM, resazurin, mean ± SEM of 2 independent experiments (n = 8), read-out: IC50 ± SEM) stood at 6.27 ± 1.02 µM.

`CCCCCCCCCCCCCCn1cc[n+](Cc2cn(CCCC[C@H](NC(=O)[C@@H](NC(=O)[C@@H](NC(=O)[C@@H](N)CCCCN)[C@@H](C)O)[C@@H](C)O)C(=O)N[C@@H](CO)C(N)=O)nn2)c1` [KTTK(C14Im)S]: the MIC in data set [3] (setting [14]) was 58.9 μM and 52.6 μg/mL; in [4] (setting [15]), 58.9 μM and 52.6 μg/mL; in data set [5] (setting [16]) it was 29.5 μM and 26.3 μg/mL; in [6] (setting [17]), 29.5 μM and 26.3 μg/mL.

Take `C[C@@H](O)[C@H](NC(=O)[C@@H](NC(=O)[C@@H](N)CCCCN)[C@@H](C)O)C(=O)N[C@@H](CCCCn1cc(C[n+]2ccn(C)c2)nn1)C(=O)N[C@@H](CO)C(N)=O` [KTTK(MeIm)S]: the MIC in [3] (setting [14]) is > 954.2 μM and > 677.3 μg/mL; in data set [4] (setting [15]), > 954.2 μM and > 677.3 μg/mL; in data set [5] (setting [16]) it was > 954.2 μM and > 677.3 μg/mL; in data set [6] (setting [17]), > 954.2 μM and > 677.3 μg/mL.

In [10] (24 h), `CCCCCCCCCCCCCCCC(=O)N[C@@H](CCCCN)C(=O)N[C@H](C(=O)N[C@H](C(=O)N[C@@H](CCCCN)C(=O)N[C@@H](CO)C(=O)O)[C@@H](C)O)[C@@H](C)O` [Peptide C16-KTTKS-OH] (Palmitoyl-KTTKS-OH) had an IC50 greater than 100 µM. For the same molecule, the IC50 in data set [11] turned out to be 79.7 ± 2.82 µM. Further, in data set [1], the “Behaviour when diluted in cation-adjusted Mueller-Hinton broth (MHB2)” value is on record as “precipitated”, the Solubility in water entry is recorded as “poor solubility in water” and the “Solvent in which the peptide was soluble” value was “dimethyl sulfoxide (DMSO)”.

For `OC(Cn1cncn1)(Cn1cncn1)c1ccc(F)cc1F` [Fluconazole, reference compound], the MIC in [7] was 26 µM (≈ 7.96 µg/mL); in data set [8], 6.5 µM (≈ 1.99 µg/mL); in data set [9], 1.6 µM (≈ 0.49 µg/mL).

Regarding `C[C@@H](O)[C@H](NC(=O)[C@@H](NC(=O)[C@@H](N)CCCCn1cc(C[n+]2ccn(C)c2)nn1)[C@@H](C)O)C(=O)N[C@@H](CCCCN)C(=O)N[C@@H](CO)C(N)=O` [K(MeIm)TTKS], the MIC was > 1030.1 μM and > 731.2 μg/mL in data set [3] (setting [14]); > 1030.1 μM and > 731.2 μg/mL in [4] (setting [15]); > 1030.1 μM and > 731.2 μg/mL in data set [5] (setting [16]); > 1030.1 μM and > 731.2 μg/mL in data set [6] (setting [17]).

`C[C@@H](O)[C@H](NC(=O)[C@H](CCCCN)NC(=O)Cn1cc(C[n+]2ccn(C)c2)nn1)C(=O)N[C@H](C(=O)N[C@@H](CCCCN)C(=O)N[C@@H](CO)C(N)=O)[C@@H](C)O` [MeIm-KTTKS] (X2-KTTKS-NH2): the MIC was > 825.9 μM and > 633.4 μg/mL in data set [3] (setting [14]); > 825.9 μM and > 633.4 μg/mL in data set [4] (setting [15]); > 825.9 μM and > 633.4 μg/mL in [5] (setting [16]); > 825.9 μM and > 633.4 μg/mL in data set [6] (setting [17]).

Consider `C[C@@H](O)[C@H](NC(=O)[C@@H](NC(=O)[C@@H](N)CCCCn1cc(C[n+]2ccn(C)c2)nn1)[C@@H](C)O)C(=O)N[C@@H](CCCCn1cc(C[n+]2ccn(C)c2)nn1)C(=O)N[C@@H](CO)C(N)=O` [K(MeIm)TTK(MeIm)S], for which the MIC in data set [3] (setting [14]) was > 1245.5 μM and > 1067.4 μg/mL; in data set [4] (setting [15]), > 1245.5 μM and > 1067.4 μg/mL; in data set [5] (setting [16]) it was > 1245.5 μM and > 1067.4 μg/mL; in data set [6] (setting [17]), > 1245.5 μM and > 1067.4 μg/mL.

(Values after publication PMC9431032, “Boosting Cosmeceutical Peptides: Coupling Imidazolium-Based Ionic Liquids to Pentapeptide-4 Originates New Leads with Antimicrobial and Collagenesis-Inducing Activities” (Microbiology Spectrum, 2022).)
